For data set [1], the target named is Serine/threonine-protein kinase Chk2 (Homo sapiens) (UniProt O96017). Kind of data set: Inhibition of CHK2 (unknown origin) at 0.078 uM relative to control.
The target of data set [2] is Tyrosine-protein kinase Lyn (Homo sapiens) (UniProt P07948). Kind of data set: Inhibition of LYN (unknown origin) at 0.078 uM relative to control.
For data set [3], the target named is Serine/threonine-protein kinase pim-2 (Homo sapiens) (UniProt Q9P1W9). The experiment in a line: Inhibition of PIM2 (unknown origin) at 0.078 uM relative to control.
In data set [4] the target is T1, Interleukin-1 receptor-associated kinase 4 (Homo sapiens) (UniProt Q9NWZ3).
T1 sequence (whole entry): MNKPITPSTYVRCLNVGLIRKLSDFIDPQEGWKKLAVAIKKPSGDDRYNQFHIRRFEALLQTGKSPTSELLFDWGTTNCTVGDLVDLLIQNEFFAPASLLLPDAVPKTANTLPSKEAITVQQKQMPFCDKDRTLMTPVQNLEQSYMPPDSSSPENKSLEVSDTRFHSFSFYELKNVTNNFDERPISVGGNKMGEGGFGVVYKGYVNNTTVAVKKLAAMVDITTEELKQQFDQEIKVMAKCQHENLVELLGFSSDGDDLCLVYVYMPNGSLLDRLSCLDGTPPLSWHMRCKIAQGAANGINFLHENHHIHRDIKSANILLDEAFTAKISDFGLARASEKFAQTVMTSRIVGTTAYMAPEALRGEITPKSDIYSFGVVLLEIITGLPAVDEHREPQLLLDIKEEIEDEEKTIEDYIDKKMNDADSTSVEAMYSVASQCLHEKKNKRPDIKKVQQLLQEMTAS
Kind of data set: Inhibition of IRAK4 (unknown origin) at 0.078 uM relative to control.

The nature of data set [5]: Unbound fraction in po dosed C57BL/6J mouse plasma by LC-MS/MS analysis. Format: ADME, organism-based.
Data set [6] deals with Serine/threonine-protein kinase PAK 2 (Homo sapiens) (UniProt Q13177). Kind of data set: Inhibition of PAK2 (unknown origin) at 0.078 uM relative to control.
The target in data set [7] is Cyclin-dependent kinase 1/cyclin B1 (Homo sapiens) (UniProt P06493+P14635). Kind of data set: Inhibition of CDK1/Cycline B1 (unknown origin) at 0.49 uM relative to control. Format: protein-complex assay.
Data set [8] concerns the target Ephrin type-A receptor 8 (Homo sapiens) (UniProt P29322). The experiment in a line: Inhibition of EPHA8 (unknown origin) at 0.49 uM relative to control.
In data set [9] the target is Tyrosine-protein kinase Yes (Homo sapiens) (UniProt P07947). The experiment in a line: Inhibition of Yes (unknown origin) at 0.49 uM relative to control.
For data set [10], the target named is T2, Serine/threonine-protein kinase D2 (Homo sapiens) (UniProt Q9BZL6).
T2 sequence (whole entry): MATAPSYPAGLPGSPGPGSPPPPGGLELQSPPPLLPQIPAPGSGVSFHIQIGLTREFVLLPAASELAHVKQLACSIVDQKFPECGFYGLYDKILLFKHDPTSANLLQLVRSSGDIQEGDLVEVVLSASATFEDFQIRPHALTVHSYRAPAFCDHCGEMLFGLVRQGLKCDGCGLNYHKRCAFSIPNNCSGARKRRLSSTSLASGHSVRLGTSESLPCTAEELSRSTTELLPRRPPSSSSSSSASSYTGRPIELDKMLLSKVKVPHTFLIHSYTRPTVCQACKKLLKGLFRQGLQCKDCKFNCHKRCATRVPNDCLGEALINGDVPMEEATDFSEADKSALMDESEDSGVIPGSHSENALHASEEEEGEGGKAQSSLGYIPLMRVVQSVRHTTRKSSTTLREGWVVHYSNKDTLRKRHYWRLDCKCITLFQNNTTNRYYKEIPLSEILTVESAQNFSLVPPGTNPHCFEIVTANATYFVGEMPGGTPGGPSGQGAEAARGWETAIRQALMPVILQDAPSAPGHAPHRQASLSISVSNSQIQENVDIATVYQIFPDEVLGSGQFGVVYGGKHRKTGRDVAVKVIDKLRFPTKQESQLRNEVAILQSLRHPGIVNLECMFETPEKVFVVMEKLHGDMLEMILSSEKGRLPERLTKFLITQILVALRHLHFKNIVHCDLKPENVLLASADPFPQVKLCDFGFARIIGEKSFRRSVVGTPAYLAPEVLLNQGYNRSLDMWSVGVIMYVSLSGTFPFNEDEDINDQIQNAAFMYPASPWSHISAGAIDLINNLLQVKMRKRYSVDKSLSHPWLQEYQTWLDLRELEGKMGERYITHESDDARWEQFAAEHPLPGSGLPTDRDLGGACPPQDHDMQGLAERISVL
The experiment in a line: Inhibition of PKD2 (unknown origin) at 0.49 uM relative to control.

The subject of data set [11] is Tyrosine-protein kinase ABL1 (Homo sapiens), P00519 [G250E]. Kind of data set: Inhibition of ABL1 G250E mutant (unknown origin) at 0.49 uM relative to control.
For data set [12], the system named is Epidermal growth factor receptor (Homo sapiens), P00533 [T790M]. Kind of data set: Inhibition of EGFR T790M mutant (unknown origin) at 0.49 uM relative to control.
In data set [13] the target is T1, Interleukin-1 receptor-associated kinase 4 (Homo sapiens). The experiment in a line: Inhibition of IRAK4 (unknown origin) at 0.49 uM relative to control.
Data set [14] has as its target Cytoplasmic tyrosine-protein kinase BMX (Homo sapiens) (UniProt P51813). The experiment in a line: Inhibition of BMX (unknown origin) at 0.49 uM relative to control.
Data set [15] has as its target Calcium/calmodulin-dependent protein kinase type 1 (Homo sapiens) (UniProt Q14012). The experiment in a line: Inhibition of CaMK1a (unknown origin) at 0.45 uM relative to control.
Data set [16] has as its system Platelet-derived growth factor receptor alpha (Homo sapiens), P16234 [V561D]. Kind of data set: Inhibition of PDGFRA V561D mutant (unknown origin) at 0.45 uM relative to control.
Data set [17] has as its target Fibroblast growth factor receptor 2 (Homo sapiens) (UniProt P21802). The experiment in a line: Inhibition of FGFR2 (unknown origin) at 0.45 uM relative to control.
Data set [18] deals with Serine/threonine-protein kinase PAK 2 (Homo sapiens) (UniProt Q13177). The experiment in a line: Inhibition of PAK2 (unknown origin) at 0.45 uM relative to control.
Data set [19] has as its target Ephrin type-B receptor 3 (Homo sapiens) (UniProt P54753). The experiment in a line: Inhibition of EPHB3 (unknown origin) at 0.45 uM relative to control.
The target of data set [20] is MAP kinase-activated protein kinase 3 (Homo sapiens) (UniProt Q16644). The experiment in a line: Inhibition of MAPKAPK3 (unknown origin) at 0.45 uM relative to control.
For data set [21], the target named is Serine/threonine-protein kinase PAK 4 (Homo sapiens) (UniProt O96013). Kind of data set: Inhibition of PAK4 (unknown origin) at 0.45 uM relative to control.
The subject of data set [22] is Receptor-type tyrosine-protein kinase FLT3 (Homo sapiens), P36888 [D835Y]. The experiment in a line: Inhibition of Flt3 D835Y mutant (unknown origin) at 0.45 uM relative to control.
Data set [23] has as its target CDK6/cyclin D3 (Homo sapiens) (UniProt P30281+Q00534). Kind of data set: Inhibition of CDK6/CyclinD3 (unknown origin) at 0.45 uM relative to control. The data set is classed as protein-complex assay.
Data set [24] addresses ALK tyrosine kinase receptor (Homo sapiens) (UniProt Q9UM73). Kind of data set: Inhibition of ALK (unknown origin) at 0.45 uM relative to control.

A word on the inhibition: it is the change of the read-out against control, counted positive when it falls. The term fraction unbound denotes free concentration divided by total concentration. The low end stands for little free substance, the high end for much free substance.

Chain of Serine/threonine-protein kinase PAK 2 (Homo sapiens) (Q13177 whole entry): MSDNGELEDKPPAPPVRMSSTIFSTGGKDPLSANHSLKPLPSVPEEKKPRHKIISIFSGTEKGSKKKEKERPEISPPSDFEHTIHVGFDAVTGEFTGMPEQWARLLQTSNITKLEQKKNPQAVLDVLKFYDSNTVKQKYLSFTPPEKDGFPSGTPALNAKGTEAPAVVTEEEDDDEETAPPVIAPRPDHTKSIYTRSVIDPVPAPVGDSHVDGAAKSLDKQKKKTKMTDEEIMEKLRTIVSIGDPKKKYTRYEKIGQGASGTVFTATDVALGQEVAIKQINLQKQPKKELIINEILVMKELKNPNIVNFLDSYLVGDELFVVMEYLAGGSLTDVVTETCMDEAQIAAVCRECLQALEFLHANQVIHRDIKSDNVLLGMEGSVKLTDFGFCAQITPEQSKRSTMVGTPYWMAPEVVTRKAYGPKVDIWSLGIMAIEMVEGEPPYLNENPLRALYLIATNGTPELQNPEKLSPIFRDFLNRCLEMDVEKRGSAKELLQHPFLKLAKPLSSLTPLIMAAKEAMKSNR
Chain of Cytoplasmic tyrosine-protein kinase BMX (Homo sapiens) (P51813 whole entry): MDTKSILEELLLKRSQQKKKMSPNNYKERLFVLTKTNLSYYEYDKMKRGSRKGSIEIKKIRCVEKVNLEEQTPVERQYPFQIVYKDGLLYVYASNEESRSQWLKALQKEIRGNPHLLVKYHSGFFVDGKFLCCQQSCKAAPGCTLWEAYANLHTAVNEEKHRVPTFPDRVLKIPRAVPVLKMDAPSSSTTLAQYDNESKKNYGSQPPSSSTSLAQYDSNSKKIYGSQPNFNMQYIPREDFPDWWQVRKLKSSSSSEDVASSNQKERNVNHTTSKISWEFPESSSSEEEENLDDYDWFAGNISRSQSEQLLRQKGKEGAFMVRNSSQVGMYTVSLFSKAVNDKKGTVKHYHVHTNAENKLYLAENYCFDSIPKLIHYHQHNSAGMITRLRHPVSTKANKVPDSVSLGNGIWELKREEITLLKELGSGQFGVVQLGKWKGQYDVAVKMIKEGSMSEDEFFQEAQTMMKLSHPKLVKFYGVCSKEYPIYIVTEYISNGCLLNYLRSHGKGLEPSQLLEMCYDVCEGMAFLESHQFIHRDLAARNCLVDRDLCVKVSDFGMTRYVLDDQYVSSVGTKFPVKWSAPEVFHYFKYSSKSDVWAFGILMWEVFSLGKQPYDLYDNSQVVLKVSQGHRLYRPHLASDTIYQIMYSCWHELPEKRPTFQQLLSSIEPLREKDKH
Chain of Cyclin-dependent kinase 1/cyclin B1 (Homo sapiens) (P06493 whole entry, looked up): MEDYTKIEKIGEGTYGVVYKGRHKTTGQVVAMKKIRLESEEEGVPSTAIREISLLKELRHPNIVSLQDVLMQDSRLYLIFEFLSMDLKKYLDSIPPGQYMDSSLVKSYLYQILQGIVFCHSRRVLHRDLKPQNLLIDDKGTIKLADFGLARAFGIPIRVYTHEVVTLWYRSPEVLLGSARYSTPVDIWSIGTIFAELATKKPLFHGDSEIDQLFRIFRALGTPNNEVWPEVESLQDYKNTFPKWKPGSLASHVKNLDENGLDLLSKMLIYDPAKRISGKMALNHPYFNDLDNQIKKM
Chain of Cyclin-dependent kinase 1/cyclin B1 (Homo sapiens) (P14635 whole entry, looked up): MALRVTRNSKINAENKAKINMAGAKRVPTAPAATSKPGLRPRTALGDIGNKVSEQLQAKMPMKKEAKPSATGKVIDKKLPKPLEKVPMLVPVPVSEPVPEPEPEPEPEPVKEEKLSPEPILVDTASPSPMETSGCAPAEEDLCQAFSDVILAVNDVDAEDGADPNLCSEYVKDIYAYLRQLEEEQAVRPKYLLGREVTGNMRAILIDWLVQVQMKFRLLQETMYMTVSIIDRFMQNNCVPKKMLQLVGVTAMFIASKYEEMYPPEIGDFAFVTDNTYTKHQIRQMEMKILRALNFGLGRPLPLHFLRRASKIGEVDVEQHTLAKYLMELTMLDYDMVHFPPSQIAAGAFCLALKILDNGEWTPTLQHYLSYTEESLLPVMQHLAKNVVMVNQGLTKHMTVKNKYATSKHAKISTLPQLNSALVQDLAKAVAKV
Chain of ALK tyrosine kinase receptor (Homo sapiens) (Q9UM73 19-1620 limits assumed): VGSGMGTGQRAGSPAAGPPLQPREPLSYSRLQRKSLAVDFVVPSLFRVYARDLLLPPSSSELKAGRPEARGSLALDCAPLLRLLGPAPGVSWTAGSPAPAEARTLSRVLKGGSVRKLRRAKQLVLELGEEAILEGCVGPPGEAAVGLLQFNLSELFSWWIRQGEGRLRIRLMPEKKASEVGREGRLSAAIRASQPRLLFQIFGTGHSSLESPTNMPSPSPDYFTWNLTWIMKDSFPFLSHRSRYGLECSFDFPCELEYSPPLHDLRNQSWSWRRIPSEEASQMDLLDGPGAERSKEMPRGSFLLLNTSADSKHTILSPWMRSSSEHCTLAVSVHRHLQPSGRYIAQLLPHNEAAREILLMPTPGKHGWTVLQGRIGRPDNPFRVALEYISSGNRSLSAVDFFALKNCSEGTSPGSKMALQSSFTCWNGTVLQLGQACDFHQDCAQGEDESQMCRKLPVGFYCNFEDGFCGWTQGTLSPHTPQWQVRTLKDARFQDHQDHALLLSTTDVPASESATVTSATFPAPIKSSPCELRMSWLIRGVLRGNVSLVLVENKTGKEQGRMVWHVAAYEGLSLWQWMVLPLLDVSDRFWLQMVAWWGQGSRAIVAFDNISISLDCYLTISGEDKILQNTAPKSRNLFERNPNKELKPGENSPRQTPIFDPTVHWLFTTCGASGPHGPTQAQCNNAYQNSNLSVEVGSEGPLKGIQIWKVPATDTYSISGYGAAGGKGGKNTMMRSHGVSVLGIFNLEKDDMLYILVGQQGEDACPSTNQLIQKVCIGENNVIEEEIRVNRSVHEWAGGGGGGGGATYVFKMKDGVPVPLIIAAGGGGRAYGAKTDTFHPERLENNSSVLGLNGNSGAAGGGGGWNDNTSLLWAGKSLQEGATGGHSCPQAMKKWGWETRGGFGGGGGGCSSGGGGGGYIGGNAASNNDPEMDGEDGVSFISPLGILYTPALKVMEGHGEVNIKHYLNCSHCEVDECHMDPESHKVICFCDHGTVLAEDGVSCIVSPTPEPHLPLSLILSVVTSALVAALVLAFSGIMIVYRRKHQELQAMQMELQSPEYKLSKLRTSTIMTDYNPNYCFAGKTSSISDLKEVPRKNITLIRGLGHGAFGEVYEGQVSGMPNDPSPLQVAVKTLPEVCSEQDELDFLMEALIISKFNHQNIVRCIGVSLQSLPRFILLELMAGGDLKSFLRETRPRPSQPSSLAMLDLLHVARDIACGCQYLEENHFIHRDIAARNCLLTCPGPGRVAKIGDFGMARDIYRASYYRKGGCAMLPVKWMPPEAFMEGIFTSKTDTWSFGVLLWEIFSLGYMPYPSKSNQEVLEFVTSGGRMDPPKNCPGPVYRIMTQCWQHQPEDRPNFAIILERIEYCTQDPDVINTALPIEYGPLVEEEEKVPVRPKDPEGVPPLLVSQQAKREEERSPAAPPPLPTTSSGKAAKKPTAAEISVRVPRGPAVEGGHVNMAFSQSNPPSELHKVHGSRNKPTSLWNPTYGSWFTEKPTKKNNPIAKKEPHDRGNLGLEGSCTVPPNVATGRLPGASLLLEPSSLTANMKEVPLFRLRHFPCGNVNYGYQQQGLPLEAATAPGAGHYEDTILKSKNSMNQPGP
Chain of Ephrin type-B receptor 3 (Homo sapiens) (P54753 whole entry): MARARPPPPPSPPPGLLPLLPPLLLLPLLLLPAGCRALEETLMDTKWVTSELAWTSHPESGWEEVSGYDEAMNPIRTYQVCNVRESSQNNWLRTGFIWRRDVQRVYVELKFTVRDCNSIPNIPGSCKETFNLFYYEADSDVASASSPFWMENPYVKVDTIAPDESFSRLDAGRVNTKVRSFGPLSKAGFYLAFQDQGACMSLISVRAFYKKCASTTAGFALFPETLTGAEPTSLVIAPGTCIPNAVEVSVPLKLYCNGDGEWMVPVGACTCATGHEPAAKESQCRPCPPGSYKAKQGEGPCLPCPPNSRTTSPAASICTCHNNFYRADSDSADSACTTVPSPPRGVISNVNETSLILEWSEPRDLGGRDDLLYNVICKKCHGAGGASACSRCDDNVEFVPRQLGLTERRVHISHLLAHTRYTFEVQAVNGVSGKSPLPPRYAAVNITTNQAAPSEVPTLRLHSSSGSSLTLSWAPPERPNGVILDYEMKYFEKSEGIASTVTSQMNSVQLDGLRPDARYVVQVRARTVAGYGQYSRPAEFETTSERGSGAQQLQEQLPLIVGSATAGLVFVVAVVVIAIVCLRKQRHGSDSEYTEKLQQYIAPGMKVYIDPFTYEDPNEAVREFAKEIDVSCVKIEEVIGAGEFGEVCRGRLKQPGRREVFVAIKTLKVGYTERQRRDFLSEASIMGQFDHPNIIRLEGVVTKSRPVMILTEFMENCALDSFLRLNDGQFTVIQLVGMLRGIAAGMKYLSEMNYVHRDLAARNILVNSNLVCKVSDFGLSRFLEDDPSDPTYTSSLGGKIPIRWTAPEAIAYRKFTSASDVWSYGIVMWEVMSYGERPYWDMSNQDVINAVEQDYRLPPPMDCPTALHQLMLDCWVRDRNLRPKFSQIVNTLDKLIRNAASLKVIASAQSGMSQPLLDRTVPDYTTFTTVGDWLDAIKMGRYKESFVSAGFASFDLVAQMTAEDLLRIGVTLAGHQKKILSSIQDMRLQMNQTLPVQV
Chain of MAP kinase-activated protein kinase 3 (Homo sapiens) (Q16644 whole entry, looked up): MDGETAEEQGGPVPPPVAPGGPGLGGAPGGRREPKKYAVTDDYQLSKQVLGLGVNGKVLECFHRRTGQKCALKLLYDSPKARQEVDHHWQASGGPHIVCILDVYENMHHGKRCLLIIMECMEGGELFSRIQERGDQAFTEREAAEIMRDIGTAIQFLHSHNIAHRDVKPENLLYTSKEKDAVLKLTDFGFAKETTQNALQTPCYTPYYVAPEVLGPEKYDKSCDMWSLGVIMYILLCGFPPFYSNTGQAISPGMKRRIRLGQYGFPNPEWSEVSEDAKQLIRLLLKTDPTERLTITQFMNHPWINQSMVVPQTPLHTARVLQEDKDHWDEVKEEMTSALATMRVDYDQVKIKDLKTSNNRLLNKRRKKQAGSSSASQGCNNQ

`COC(=O)Nc1noc2cc(-c3c(-c4ccccn4)n[nH]c3C)ccc12`: the inhibition was 0.7% in [1]; -0.3% in [2]; 1.7% in data set [3]; 5.7% in data set [4]; -5.3% in [6]. The fraction unbound in data set [5] stood at 0.17.

For the compound `Cc1[nH]nc(C2CC2)c1-c1ccc2c(NC(=O)C3CC3)noc2c1`, the inhibition in [7] was 20%; in data set [8], -2.7%; in data set [9] it was -8%; in [10] it was 7.7%; in data set [11], 23.7%; in data set [12], 0.7%. In addition, the results for the inhibition in data set [13] and in data set [14] were 2% and -0.7%, respectively.

Regarding `Cc1n[nH]c(C)c1-c1ccc2c(NC(=O)c3ccc(N4CCN(C)CC4)cc3)n[nH]c2c1`, the inhibition in data set [15] is -0.7%; in data set [16] it was 30%; in [17], 21.7%; in data set [18], -2.7%; in data set [19] it was 2.7%; in data set [20] it was 4%. Further, the inhibition in data set [21] is 4%; in data set [22] it was 89%; in [23] it was 5.3%; in data set [24], 26%.

Source of the values: ChEMBL document CHEMBL4052759, “Discovery of DS79182026: A potent orally active hepcidin production inhibitor” (Bioorg Med Chem Lett, 2017).
